Measurements published in patent publication US20250214976A1, “GPR35 MODULATORS AND USES THEREOF” (Crossignal Therapeutics, Inc., priority 2022, published 2025).

The compounds below were run against T1, human GPR35 (Homo sapiens, UniProt Q9HC97) (assay: Luciferase Reporter Assay (YAP responsive element) in HEK293 cells stably transfected with human GPR35). Settings: overnight incubation.
T1 construct: expressed in transfected cells; host or cells: HEK293
T1 sequence (Q9HC97 whole entry): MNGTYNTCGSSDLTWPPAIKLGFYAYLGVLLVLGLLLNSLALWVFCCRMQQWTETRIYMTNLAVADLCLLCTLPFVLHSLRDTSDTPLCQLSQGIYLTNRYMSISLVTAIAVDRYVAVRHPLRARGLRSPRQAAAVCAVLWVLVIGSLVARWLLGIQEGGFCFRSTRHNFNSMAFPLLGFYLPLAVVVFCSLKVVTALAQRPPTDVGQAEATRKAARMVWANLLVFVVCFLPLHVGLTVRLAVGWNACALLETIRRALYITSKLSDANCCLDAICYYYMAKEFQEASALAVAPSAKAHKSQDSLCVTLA
Type: cell-based
Method: HEK293 cells stably transfected with human GPR35 were maintained in Dulbecco's Modified Eagle Medium (DMEM) supplemented with 10% FBS and 300 μg/mL Zeocin and 200 μg/mL Hygromycin at 37° C., 10% CO2. On Day 1, cells were plated in poly-D-lysine coated 96-well tissue culture plate in regular growth medium (DMEM/10% FBS/300 μg/mL Zeocin/200 μg/mL Hygromycin. On the next day, luciferase reporter plasmid DNA with YAP responsive element was transfected into cells using lipofectamine 2000 (Invitrogen) following manufacture's protocol. After transfection for 6 hr., cells were treated with testing compounds in fasting DMEM medium (phenol red free, FBS free) at varying compound concentrations ranging from 10 μM to […] in a 3-fold serial diluted fashion. After an overnight incubation, the luciferase activities were measured with SteadyLite Plus Kit (PerkinElmer) according to manufacturer's protocol. IC50 was determined by fitting the dose-response data to a four-parameter logistic curve using GraphPad Prism.
The symbol “+” indicates IC50 is greater than […]. “++” indicates IC50>100 nM but ≤[…]. “+++” indicates IC50≤100 nM.
`O=C(Nc1ccc(OCc2ccc(F)cc2Cl)cc1)c1coc2cc(Oc3nnn[nH]3)ccc12` [Compound 1-29, 6-((1H-tetrazol-5-yl)oxy)-N-(4-((2-chloro-4-fluorobenzyl)oxy)phenyl)benzofuran-3-carboxamide] gave an IC50 of over 1000 nM.
Compound `O=C(Nc1ccc(O[C@@H]2CCC(F)(F)C2)c(F)c1)c1coc2cc(-c3nnn[nH]3)c(F)cc12` (single isomer, unassigned) [Compound 1-37] has an IC50 of at most 100 nM.
`O=C(Nc1ccc(OCc2ccc(F)cn2)cc1)c1coc2cc(-c3nnn[nH]3)c(F)cc12` [Compound 1-47, 5-fluoro-N-(4-((5-fluoropyridin-2-yl)methoxy)phenyl)-6-(1H-tetrazol-5-yl)benzofuran-3-carboxamide] was tested, and the IC50 was 100 to 1000 nM.
In the case of `O=C(Nc1ccc(OCc2ccc(F)cc2Cl)cc1)c1coc2cc(OCc3nnn[nH]3)ccc12` [Compound 1-8, 6-((1H-tetrazol-5-yl)methoxy)-N-(4-((2-chloro-4-fluorobenzyl)oxy)phenyl)benzofuran-3-carboxamide], the IC50 is reported as over 1000 nM.
For `N#Cc1cc(F)ccc1COc1ccc(NC(=O)c2coc3cc(-c4nnn[nH]4)c(F)cc23)cc1` [Compound 1-48, N-(4-((2-cyano-4-fluorobenzyl)oxy)phenyl)-5-fluoro-6-(1H-tetrazol-5-yl)benzofuran-3-carboxamide], the IC50 was 100 to 1000 nM.
In the case of `O=C(Nc1ccc(OC2CC(F)(F)C2)c(F)c1)c1coc2cc(-c3nnn[nH]3)c(F)cc12` [Compound 1-27, N-(4-(3,3-difluorocyclobutoxy)-3-fluorophenyl)-5-fluoro-6-(1H-tetrazol-5-yl)benzofuran-3-carboxamide], the IC50 is reported as 100 to 1000 nM.
`O=C(Nc1ccc(OC2CCCC2)c(F)c1F)c1coc2cc(-c3nnn[nH]3)ccc12` [Compound 1-9, N-(4-(cyclopentyloxy)-2,3-difluorophenyl)-6-(1H-tetrazol-5-yl)benzofuran-3-carboxamide] showed an IC50 of over 1000 nM.
`O=C(Nc1ccc(OCc2ccc(F)cc2Cl)c(F)c1)c1coc2c(-c3nnn[nH]3)cccc12` [Compound 1-11, N-(4-((2-chloro-4-fluorobenzyl)oxy)-3-fluorophenyl)-7-(1H-tetrazol-5-yl)benzofuran-3-carboxamide] showed an IC50 of over 1000 nM.
`O=C(Nc1ccc(OCc2cc(F)cc(Cl)c2)cc1)c1coc2cc(-c3nnn[nH]3)c(F)cc12` [Compound 1-45, N-(4-((3-chloro-5-fluorobenzyl)oxy)phenyl)-5-fluoro-6-(1H-tetrazol-5-yl)benzofuran-3-carboxamide] showed an IC50 of 100 to 1000 nM.
`O=C(Nc1ccc(OCc2cc(Cl)c(Cl)s2)cc1)c1coc2cc(-c3nnn[nH]3)c(F)cc12` [Compound 1-57, N-(4-((4,5-dichlorothiophen-2-yl)methoxy)phenyl)-5-fluoro-6-(1H-tetrazol-5-yl)benzofuran-3-carboxamide] was tested, and the IC50 was 100 to 1000 nM.
Work on `O=C(Nc1ccc(C2CCCC2)c(F)c1)c1csc2cc(-c3nnn[nH]3)ccc12` [Compound 1-58, N-(4-cyclopentyl-3-fluorophenyl)-6-(1H-tetrazol-5-yl)benzo[b]thiophene-3-carboxamide] yielded an IC50 of at most 100 nM.
In the case of `O=C(Nc1ccc(OCc2ccc(Cl)cn2)cc1)c1coc2cc(-c3nnn[nH]3)c(F)cc12` [Compound 1-51, N-(4-((5-chloropyridin-2-yl)methoxy)phenyl)-5-fluoro-6-(1H-tetrazol-5-yl)benzofuran-3-carboxamide], the IC50 is reported as at most 100 nM.
`O=C(Nc1cc(F)c(OC2CCCC2)cc1F)c1coc2cc(-c3nnn[nH]3)ccc12` [Compound 1-10, N-(4-(cyclopentyloxy)-2,5-difluorophenyl)-6-(1H-tetrazol-5-yl)benzofuran-3-carboxamide] was tested, and the IC50 was at most 100 nM.
Work on `NC(=O)c1cc2occ(C(=O)Nc3ccc(OCc4ccc(F)cc4Cl)cc3)c2cc1F` [Compound 1-23, N3-(4-((2-chloro-4-fluorobenzyl)oxy)phenyl)-5-fluorobenzofuran-3,6-dicarboxamide] yielded an IC50 of over 1000 nM.
`C[C@H](Oc1ccc(NC(=O)c2coc3cc(-c4nnn[nH]4)c(F)cc23)cc1F)C(F)(F)F` (single isomer, unassigned) [Compound 1-30] showed an IC50 of at most 100 nM.
With `O=C(Nc1ccc(N2CCC[C@@H]2C(F)(F)F)c(F)c1)c1coc2cc(-c3nnn[nH]3)c(F)cc12` [Compound 1-33, (R)-5-fluoro-N-(3-fluoro-4-(2-(trifluoromethyl)pyrrolidin-1-yl)phenyl)-6-(1H-tetrazol-5-yl)benzofuran-3-carboxamide] the IC50 was 100 to 1000 nM.
Compound `O=C(Nc1ccc(OC2CCCC2)c(F)c1)c1coc2cc(-c3nnn[nH]3)ccc12` [Compound 1-1, N-(4-(cyclopentyloxy)-3-fluorophenyl)-6-(1H-tetrazol-5-yl)benzofuran-3-carboxamide] has an IC50 of at most 100 nM.
Work on `O=C(Nc1ccc(OCc2ccc(F)cc2Cl)cc1)c1coc2cc(-c3nnn[nH]3)c(F)cc12` [Compound 1-18, N-(4-((2-chloro-4-fluorobenzyl)oxy)phenyl)-5-fluoro-6-(1H-tetrazol-5-yl)benzofuran-3-carboxamide] yielded an IC50 of at most 100 nM.
`O=C(Nc1ccc(C2CCCC2)c(F)c1)c1coc2cc(-c3nnn[nH]3)c(F)cc12` [Compound 1-17, N-(4-cyclopentyl-3-fluorophenyl)-5-fluoro-6-(1H-tetrazol-5-yl)benzofuran-3-carboxamide] was tested, and the IC50 was at most 100 nM.
For `O=C(Nc1ccc(N2CCC[C@H]2C(F)(F)F)c(F)c1)c1coc2cc(-c3nnn[nH]3)c(F)cc12` [Compound 1-32, (S)-5-fluoro-N-(3-fluoro-4-(2-(trifluoromethyl)pyrrolidin-1-yl)phenyl)-6-(1H-tetrazol-5-yl)benzofuran-3-carboxamide], the IC50 was 100 to 1000 nM.
`N#Cc1cc(Cl)ccc1COc1ccc(NC(=O)c2coc3cc(-c4nnn[nH]4)c(F)cc23)cc1` [Compound 1-52, N-(4-((4-chloro-2-cyanobenzyl)oxy)phenyl)-5-fluoro-6-(1H-tetrazol-5-yl)benzofuran-3-carboxamide] was tested, and the IC50 was 100 to 1000 nM.
`O=C(Nc1ccc(OCc2ccc(F)cc2Cl)cc1)c1coc2cc(-c3nnn[nH]3)ccc12` [Compound 1-13, N-(4-((2-chloro-4-fluorobenzyl)oxy)phenyl)-6-(1H-tetrazol-5-yl)benzofuran-3-carboxamide] gave an IC50 of at most 100 nM.
In the case of `O=C(Nc1ccc(O[C@H]2CCC(F)(F)C2)c(F)c1)c1coc2cc(-c3nnn[nH]3)c(F)cc12` (single isomer, unassigned) [Compound 1-36], the IC50 is reported as at most 100 nM.
`O=C(Nc1ccc(Oc2ccc(F)cc2Cl)cc1)c1coc2cc(-c3nnn[nH]3)c(F)cc12` [Compound 1-40, N-(4-(2-chloro-4-fluorophenoxy)phenyl)-5-fluoro-6-(1H-tetrazol-5-yl)benzofuran-3-carboxamide] showed an IC50 of 100 to 1000 nM.
`O=C(Nc1ccc(N2CC3C(C2)C3(F)F)c(F)c1)c1coc2cc(-c3nnn[nH]3)c(F)cc12` (stereo not shown) [Compound 1-42, N-(4-(6,6-difluoro-3-azabicyclo[3.1.0]hexan-3-yl)-3-fluorophenyl)-5-fluoro-6-(1H-tetrazol-5-yl)benzofuran-3-carboxamide] gave an IC50 of 100 to 1000 nM.
`O=C(Nc1ccc(OC2CCC2)c(F)c1)c1coc2cc(-c3nnn[nH]3)ccc12` [Compound 1-2, N-(4-cyclobutoxy-3-fluorophenyl)-6-(1H-tetrazol-5-yl)benzofuran-3-carboxamide] showed an IC50 of at most 100 nM.
`O=C(Nc1ccc(OCc2ccc(F)cc2Cl)cc1)c1coc2cc(-c3noc(=O)[nH]3)c(F)cc12` [Compound 1-24, N-(4-((2-chloro-4-fluorobenzyl)oxy)phenyl)-5-fluoro-6-(5-oxo-4,5-dihydro-1,2,4-oxadiazol-3-yl)benzofuran-3-carboxamide] gave an IC50 of at most 100 nM.
For `O=C(Nc1ccc(C2CCCC2)c(F)c1)c1coc2cc(-c3nnn[nH]3)ccc12` [Compound 1-14, N-(4-cyclopentyl-3-fluorophenyl)-6-(1H-tetrazol-5-yl)benzofuran-3-carboxamide], the IC50 was at most 100 nM.
`O=C(Nc1ccc(OCc2cccc(F)c2Cl)cc1)c1coc2cc(-c3nnn[nH]3)c(F)cc12` [Compound 1-44, N-(4-((2-chloro-3-fluorobenzyl)oxy)phenyl)-5-fluoro-6-(1H-tetrazol-5-yl)benzofuran-3-carboxamide] gave an IC50 of 100 to 1000 nM.
`O=C(Nc1ccc(O[C@@H]2CCOC2)c(F)c1)c1coc2cc(-c3nnn[nH]3)c(F)cc12` [Compound 1-22, (R)-5-fluoro-N-(3-fluoro-4-((tetrahydrofuran-3-yl)oxy)phenyl)-6-(1H-tetrazol-5-yl)benzofuran-3-carboxamide] gave an IC50 of over 1000 nM.
`O=C(Nc1ccc(OCc2ccc(Cl)cc2Cl)cc1)c1coc2cc(-c3nnn[nH]3)c(F)cc12` [Compound 1-19, N-(4-((2,4-dichlorobenzyl)oxy)phenyl)-5-fluoro-6-(1H-tetrazol-5-yl)benzofuran-3-carboxamide] gave an IC50 of 100 to 1000 nM.
In the case of `O=C(Nc1ccc(OCc2c(F)cc(Cl)cc2F)cc1)c1coc2cc(-c3nnn[nH]3)c(F)cc12` [Compound 1-54, N-(4-((4-chloro-2,6-difluorobenzyl)oxy)phenyl)-5-fluoro-6-(1H-tetrazol-5-yl)benzofuran-3-carboxamide], the IC50 is reported as 100 to 1000 nM.
`CC1(Oc2ccc(NC(=O)c3coc4cc(-c5nnn[nH]5)c(F)cc34)cc2F)CC1` [Compound 1-16, 5-fluoro-N-(3-fluoro-4-(1-methylcyclopropoxy)phenyl)-6-(1H-tetrazol-5-yl)benzofuran-3-carboxamide] gave an IC50 of at most 100 nM.
Compound `O=C(Nc1ccc(OCc2cc(Cl)cs2)cc1)c1coc2cc(-c3nnn[nH]3)c(F)cc12` [Compound 1-56, N-(4-((4-chlorothiophen-2-yl)methoxy)phenyl)-5-fluoro-6-(1H-tetrazol-5-yl)benzofuran-3-carboxamide] has an IC50 of at most 100 nM.
